Experimental findings from patent US20250340561A1, “QUINAZOLINE COMPOUND FOR INDUCING DEGRADATION OF G12D MUTANT KRAS PROTEIN” (Astellas Pharma Inc., priority 2021, published 2025) are described below.

This experiment deals with T1, KRAS G12D (Homo sapiens, UniProt P01116, G12D).
T1 construct: host or cells: AsPC-1 human pancreatic cancer cells
T1 sequence (P01116 1-188 isoform P01116-2 G12D): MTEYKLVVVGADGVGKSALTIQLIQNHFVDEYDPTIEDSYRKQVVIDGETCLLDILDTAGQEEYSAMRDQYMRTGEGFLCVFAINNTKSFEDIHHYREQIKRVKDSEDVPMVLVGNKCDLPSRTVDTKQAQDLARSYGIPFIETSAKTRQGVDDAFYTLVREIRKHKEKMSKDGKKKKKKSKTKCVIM
The experiment can be described thus: Test Example 1-2: KRAS degradation action in AsPC-1, Cell ELISA. It counts as cell-based. The following applies: AsPC-1 cells, overnight treatment, corrected with β-actin, 0% = 10 μM Example No. 26 (Example No. 8 for Example Nos. 74 and 75). As to the method: Test Example 1-2: Evaluation of KRAS Degradation Action on Human G12D Mutant KRAS-Positive Pancreatic Cancer Line AsPC-1
The KRAS degradation action of test compounds was evaluated by measuring the expression levels of KRAS G12D by Cell ELISA.
[…] As for the cell culture conditions, a RPMI 1640 medium containing 10% fetal bovine serum was used in the presence of 5% CO2 at 37° C. The next day, the test compounds (10 points having final concentrations in the range of 10 μM to 0.3 nM), the compound of Example No. 26 (Example No. 8 for Example Nos. 74 and 75) of a final concentration of 10 μM as a positive control and DMSO, which was the solvent for the test compounds, as a negative control were diluted 500-fold with a fresh medium and were added at 20 μL per well. The cells were cultured overnight.
The next day, the culture supernatant was removed, and 4% paraformaldehyde phosphate buffer (from FUJIFILM Wako Pure Chemical Corporation) was added at 20 μL per well. The plate was allowed to stand for 30 minutes at room temperature to thus immobilize the cells. Then, the supernatant was removed, and 0.1% Triton X-100 (from Amersham Biosciences)-containing PBS was added at 20 μL per well. After allowing to stand for 10 minutes at room temperature, the supernatant was removed. PBS was added at 25 μL per well, and the supernatant was removed to thus wash each well. The washing was performed twice in total. Next, the supernatant was removed, and 0.5% sodium dodecyl sulfate (SDS; from Invitrogen)-containing PBS was added at 20 μL per well. After allowing to stand at room temperature for 10 minutes, the supernatant was removed by centrifugation (using a centrifugal dehydrator machine, the supernatant was removed by the same method hereinafter). PBS was added at 25 μL per well, and the supernatant was removed to thus wash each well. The washing was performed twice in total. The supernatant was removed by centrifugation, and a blocking solution (Intercept Blocking Buffer) was added at 20 μL per well. After allowing to stand for 30 minutes at room temperature, the supernatant was removed by centrifugation, and a solution obtained by diluting an anti-Ras (G12D Mutant Specific) antibody and an anti-3-actin antibody 1,000-fold with a blocking solution was added at 20 μL per well as a primary antibody. The plate was allowed to stand overnight at 4° C.
The next day, the plate was centrifuged to remove the supernatant. PBS was added at […], and the supernatant was removed to thus wash each well. The washing was performed twice in total. The supernatant was removed by centrifugation, and a solution obtained by diluting Donkey anti-Mouse IgG H&L (TRDye 680RD) (from Li—COR Biosciences) and Goat anti-Rabbit IgG H&L (IRDye 800CW) (from Li—COR Biosciences) 1,000-fold with a blocking solution was added at 20 μL per well as a secondary antibody. After allowing to stand for 1 hour at room temperature, the supernatant was removed. PBS was added at 25 μL per well, and the supernatant was removed to thus wash each well. The washing was performed twice in total. After removing the supernatant by centrifuging the plate, the plate was dried as it was with air at room temperature for 2 hours or more, and the 700-nm and 800-nm fluorescent signals were measured with Aerius (from LI-COR Biosciences).
With the signaling value at the time of addition of DMSO corrected with the signaling value of β-actin taken as 100% and with the signaling value at the time of addition of 10 μM of the compound of Example No. 26 taken as 0%, the 50% degradation values (DC50) of the amounts of KRAS were calculated by Sigmoid-Emax model nonlinear regression analysis. The molecular weights of the test compounds were calculated as the molecular weights of the trihydrochloride for Example No. 30, the tetrahydrochloride for Example No. 46 and the free forms forming no salt for the remaining Example Nos. The results for some test compounds of the formula (I) are shown in Table 2.
A general note: ELISA stands for enzyme-linked immunosorbent assay.
As usually defined, the DC50 is the concentration giving 50% degradation. Turning to `CO[C@H](C)[C@@H](C)Oc1nc(N2C[C@@H]3C[C@H]2CN3)c2cc(C3CC3)c(-c3c(C)c(F)cc4[nH]ncc34)c(OCc3ccc(-c4cn([C@H](C(=O)N5C[C@H](O)C[C@H]5C(=O)N[C@@H](CO)c5ccc(-c6scnc6C)cc5)C(C)C)nn4)cc3)c2n1` [Example 39], the DC50 turned out to be 6 nM.
Next, `Cc1c(F)cc2[nH]ncc2c1-c1c(C2CC2)cc2c(N3C[C@@H]4C[C@H]3CN4)nc(OC3CCOCC3)nc2c1OCc1ccc(-c2cn([C@H](C(=O)N3C[C@H](O)C[C@H]3C(=O)N[C@@H](CO)c3cccc(S(C)(=O)=O)c3)C(C)C)nn2)cc1` [Example 67]: 840 nM; `Cc1ncsc1-c1ccc([C@H](CO)NC(=O)[C@@H]2C[C@@H](O)CN2C(=O)[C@H](C(C)C)n2cc(-c3ccc(COc4c(-c5c(C)c(F)cc6[nH]ncc56)c(C5CC5)cc5c(N6C[C@@H]7C[C@H]6CN7)nc(O[C@H]6CCN(CCO)C6)nc45)cc3)nn2)cc1` [Example 31]: 138 nM.
Next, `Cc1ncsc1-c1ccc([C@H](CO)NC(=O)[C@@H]2C[C@@H](O)CN2C(=O)[C@H](C(C)C)n2cc(-c3ccc(COc4c(-c5c(C)c(F)cc6[nH]ncc56)c(C5CC5)cc5c(N6C[C@@H]7C[C@H]6CN7)nc(OC[C@@H]6CCOC6)nc45)cc3)nn2)cc1` [Example 50]: 11 nM; `Cc1ncsc1-c1ccc([C@@H](CO)NC(=O)[C@@H]2C[C@@H](O)CN2C(=O)[C@H](C(C)C)n2cc(-c3ccc(COc4c(-c5c(C)c(F)cc6[nH]ncc56)c(C5CC5)cc5c(N6C[C@@H]7C[C@H]6CN7)nc(OC6CCOCC6)nc45)cc3)nn2)cc1` [Example 68]: 1390 nM.
Next, `Cc1ncsc1-c1ccc([C@H](CO)NC(=O)[C@@H]2C[C@@H](O)CN2C(=O)[C@H](C(C)C)n2cc(-c3ccc(COc4c(-c5c(C)c(F)cc6[nH]ncc56)c(C5CC5)cc5c(N6C[C@@H]7C[C@H]6CN7)nc(OC[C@@H]6CCCN6C)nc45)cc3)nn2)cc1` [Example 57]: 134 nM.
`Cc1ncsc1-c1ccc([C@H](CO)NC(=O)[C@@H]2C[C@@H](O)CN2C(=O)[C@H](C(C)C)n2cc(-c3ccc(COc4c(-c5c(C)c(F)cc6[nH]ncc56)c(C5CC5)cc5c(N6C[C@@H]7C[C@H]6CN7)nc(O[C@H](C)CN(C)C)nc45)cc3)nn2)cc1` [Example 46] yielded a DC50 of 37 nM.
Next, `Cc1ncsc1-c1ccc([C@H](CO)NC(=O)[C@@H]2C[C@@H](O)CN2C(=O)[C@H](C(C)C)n2cc(-c3ccc(COc4c(-c5c(C)c(F)cc6[nH]ncc56)c(C5CC5)cc5c(N6C[C@@H]7C[C@H]6CN7)nc(OC[C@H](C)N6CCOCC6)nc45)cc3)nn2)cc1` [Example 65]: 14 nM.
Next, `Cc1ncsc1-c1ccc([C@H](CO)NC(=O)[C@@H]2C[C@@H](O)CN2C(=O)[C@H](C(C)C)n2cc(-c3ccc(COc4c(-c5c(C)c(F)cc6[nH]ncc56)c(C5CC5)cc5c(N6C[C@@H]7C[C@H]6CN7)nc(OCC67CCCN6CCC7)nc45)cc3)nn2)cc1` [Example 44]: 111 nM; `COC[C@H](C)Oc1nc(N2C[C@@H]3C[C@H]2CN3)c2cc(C3CC3)c(-c3c(C)c(F)cc4[nH]ncc34)c(OCc3ccc(-c4cn([C@H](C(=O)N5C[C@H](O)C[C@H]5C(=O)N[C@@H](CO)c5ccc(-c6scnc6C)cc5)C(C)C)nn4)cc3)c2n1` [Example 54]: 8 nM.
As to `COCC1(COc2nc(N3C[C@@H]4C[C@H]3CN4)c3cc(C4CC4)c(-c4c(C)c(F)cc5[nH]ncc45)c(OCc4ccc(-c5cn([C@H](C(=O)N6C[C@H](O)C[C@H]6C(=O)N[C@@H](CO)c6ccc(-c7scnc7C)cc6)C(C)C)nn5)cc4)c3n2)CC1` [Example 62], the DC50 was found to be 10 nM.
Next, `Cc1c(F)cc2[nH]ncc2c1-c1c(C2CC2)cc2c(N3C[C@@H]4C[C@H]3CN4)nc(OC3CCOCC3)nc2c1OCc1ccc(-c2cn([C@H](C(=O)N3C[C@H](O)C[C@H]3C(=O)N[C@@H](CO)c3ccccc3F)C(C)C)nn2)cc1` [Example 30]: 157 nM.
Next, `COCCN1CC[C@H](Oc2nc(N3C[C@@H]4C[C@H]3CN4)c3cc(C4CC4)c(-c4c(C)c(F)cc5[nH]ncc45)c(OCc4ccc(-c5cn([C@H](C(=O)N6C[C@H](O)C[C@H]6C(=O)N[C@@H](CO)c6ccc(-c7scnc7C)cc6)C(C)C)nn5)cc4)c3n2)C1` [Example 32]: 139 nM; `Cc1ncsc1-c1ccc([C@H](CO)NC(=O)[C@@H]2C[C@@H](O)CN2C(=O)[C@H](C(C)C)n2cc(-c3ccc(COc4c(-c5c(C)c(F)cc6[nH]ncc56)c(C5CC5)cc5c(N6C[C@@H]7C[C@H]6CN7)nc(OC[C@H]6CCOC6)nc45)cc3)nn2)cc1` [Example 51]: 11 nM.
To `Cc1c(F)cc2[nH]ncc2c1-c1c(C2CC2)cc2c(N3C[C@@H]4C[C@H]3CN4)nc(OC3CCOCC3)nc2c1OCc1ccc(-c2cn([C@H](C(=O)N3C[C@H](O)C[C@H]3C(=O)N[C@@H](CO)c3cccc(F)c3)C(C)C)nn2)cc1` [Example 63] belongs 70 nM; to `CO[C@@H](C)COc1nc(N2C[C@@H]3C[C@H]2CN3)c2cc(C3CC3)c(-c3c(C)c(F)cc4[nH]ncc34)c(OCc3ccc(-c4cn([C@H](C(=O)N5C[C@H](O)C[C@H]5C(=O)N[C@@H](CO)c5ccc(N6CCOC6=O)cc5)C(C)C)nn4)cc3)c2n1` [Example 59], 45 nM; to `Cc1ncsc1-c1ccc([C@H](CO)NC(=O)[C@@H]2C[C@@H](O)CN2C(=O)[C@H](C(C)C)n2cc(-c3ccc(COc4c(-c5c(C)c(F)cc6[nH]ncc56)c(C5CC5)cc5c(N6C[C@@H]7C[C@H]6CN7)nc(OCC6(CO)CC6)nc45)cc3)nn2)cc1` [Example 61], 21 nM.
In the case of `CC[C@@H](C)Oc1nc(N2C[C@@H]3C[C@H]2CN3)c2cc(C3CC3)c(-c3c(C)c(F)cc4[nH]ncc34)c(OCc3ccc(-c4cn([C@H](C(=O)N5C[C@H](O)C[C@H]5C(=O)N[C@@H](CO)c5ccc(-c6scnc6C)cc5)C(C)C)nn4)cc3)c2n1` [Example 43], half-maximal degradation (DC50) was put at 10 nM.
To `Cc1ncsc1-c1ccc([C@H](CO)NC(=O)[C@@H]2C[C@@H](O)CN2C(=O)[C@H](C(C)C)n2cc(-c3ccc(COc4c(-c5c(C)c(F)cc6[nH]ncc56)c(C5CC5)cc5c(N6C[C@@H]7C[C@H]6CN7)nc(OC[C@H]6CCCN6C)nc45)cc3)nn2)cc1` [Example 60] belongs 102 nM; to `Cc1ncsc1-c1ccc([C@H](CO)NC(=O)[C@@H]2C[C@@H](O)CN2C(=O)[C@H](C2CC2)n2cc(-c3ccc(COc4c(-c5c(C)c(F)cc6[nH]ncc56)c(C5CC5)cc5c(N6C[C@@H]7C[C@H]6CN7)nc(OC6CCOCC6)nc45)cc3)nn2)cc1` [Example 73], 134 nM.
Next, `CO[C@H](C)COc1nc(N2C[C@@H]3C[C@H]2CN3)c2cc(C3CC3)c(-c3c(C)c(F)cc4[nH]ncc34)c(OCc3ccc(-c4cn([C@H](C(=O)N5C[C@H](O)C[C@H]5C(=O)N[C@@H](CO)c5ccc(-c6scnc6C)cc5)C(C)C)nn4)cc3)c2n1` [Example 47]: 13 nM; `Cc1c(F)cc2[nH]ncc2c1-c1c(C2CC2)cc2c(N3C[C@@H]4C[C@H]3CN4)nc(OC3CCOCC3)nc2c1OCc1ccc(-c2cn([C@H](C(=O)N3C[C@H](O)C[C@H]3C(=O)N[C@@H](CO)c3ccc(-n4ccnc4C)cc3)C(C)C)nn2)cc1` [Example 69]: 31 nM.
`Cc1ncsc1-c1ccc([C@H](CO)NC(=O)[C@@H]2C[C@@H](O)CN2C(=O)[C@H](C(C)C)n2cc(-c3ccc(COc4c(-c5c(C)c(F)cc6[nH]ncc56)c(C5CC5)cc5c(N6C[C@@H]7C[C@H]6CN7)nc(O[C@H]6CCN(CC(F)F)C6)nc45)cc3)nn2)cc1` [Example 33] registered a DC50 of 30 nM.
